Experimental data taken from US5840721A, “Imidazole derivatives as MDR modulators” (Ontogen Corporation, priority 1997, dated 1998).

The compounds below were run on CEM/VLB1000 cell line (assay: Cytotoxicity potentiation: enhancement of vinblastine cytotoxicity in MDR cell line (alamar blue)). Settings: Homo sapiens, midpoint of minimum and maximum cytotoxicity induced by 3-5 μg/mL vinblastine and compound, 48 hours incubation, alamar blue 24 hours, read-out: Cytotocicity Potentiation (EC50).
Type: cell-based, human
Procedure: Multidrug-resistant cell lines are easily obtainable for in vitro determination of drug sensitization by compounds of the present invention. In vitro potentiation of antineoplastic cytotoxicity by the imidazole derivatives of the present invention was measured in both CEM/VLB1000 and SK/VLB1000 cell lines. The multidrug resistant cell lines were obtained from Dr. Victor Ling, Ontario Cancer Institute, Toronto, Canada. The CEM/VLB 1000 cell line was maintained as a suspension in minimum essential medium supplemented with 10% fetal bovine serum in a humidied atmosphere of 95% air and 5% CO2 while the SK/VLB 1000 cell line was maintained as adherent cells using the identical medium conditions as the CEM cells. The CEM/VLB 1000 cells were seeded at a density of 5×10^4 cells/well in a 96 well microtiter plate while the SK/VLB 1000 cell line was seeded at a density of 2,500 cells/well after trypsinization.

Row | SMILES | EC50
1 | COC/C=C/c1ccc(-c2nc(-c3ccc(N(C)C)cc3)c(-c3ccc(N(C)C)cc3)[nH]2)cc1 [Example 74, 2-[4-(3-methoxy-trans-1-propen-1-yl)phenyl]-4,5-bis (4-N,N-dimnethylaminophenyl) imidazole] | 130 nM
2 | CCOC/C=C/c1ccc(-c2nc(-c3ccc(N(C)C)cc3)c(-c3ccc(N(C)C)cc3)[nH]2)cc1 [Example 75, 2-[4-(3-ethoxy-trans-1-propen-1-yl)phenyl]-4,5-bis (4-N,N-dimethylaminophenyl) imidazole] | 98 nM
3 | CCOC/C=C/c1ccc(-c2nc(-c3ccc(N(C)C)cc3)c(-c3ccc(N4CCOCC4)cc3)[nH]2)cc1 [Example 93, 2-[4-(3-ethoxy-trans-1-propen-1-yl)phenyl]-4-(4-N-dimethylaminophenyl)-5-(4-N-morpholinophenyl) imidazole] | 150 nM
4 | CCOC/C=C/c1ccc(-c2nc(-c3ccc(NC)cc3)c(-c3ccc(N4CCOCC4)cc3)[nH]2)cc1 [Example 94, 2-[4-(3-ethoxy-trans-1-propen-1-yl)phenyl]-4-(4-N-methylaminophenyl) -5(4-N-morpholinophenyl) imidazole] | 250 nM
5 | CCOC/C=C/c1ccc(-c2nc(-c3ccc(NC(C)C)cc3)c(-c3ccc(NC)cc3)[nH]2)cc1 [Example 95, 2-[4-(3-ethoxy-trans-1-propen-1-yl)phenyl]-4-(4-N-methylaminophenyl)-5-(4-N-isopropylaminophenyl) imidazole] | 50 nM
6 | CN(C)c1ccc(-c2nc(-c3ccc(/C=C/S(C)(=O)=O)cc3)[nH]c2-c2ccc(N(C)C)cc2)cc1 [Example 96, 2-[4-trans-(2-methanesulfonyl-ethenyl)-phenyl]-4,5-bis (4-N,N-dimethylaminophenyl) imidazole] | 730 nM
7 | CN(C)c1ccc(-c2nc(-c3ccc(N4CCOCC4)cc3)[nH]c2-c2ccc(N(C)C)cc2)cc1 [Example 97, 2-(4-N-morpholinophenyl)-4,5-bis (4-N,N-dimnethylaminophenyl) imidazole] | 190 nM
8 | CCOC(=O)c1cc(-c2ccc(-c3nc(-c4ccc(N(C)C)cc4)c(-c4ccc(N(C)C)cc4)[nH]3)cc2)no1 [Example 98, 2-[4-(5-ethylcarboxyisoxazol-3-yl)-phenyl]-4,5-bis (4-N,N-dimethylamainophenyl) imidazole] | 600 nM
9 | CCN(CC)Cc1ccc(-c2[nH]c(-c3ccc(/C=C/C(=O)OC)cc3)nc2-c2ccc(C)cc2)cc1 [Example 99, 2-[4-trans-(2-methoxycarbonyl-ethenyl)phenyl]-4-(p-tolyl)-5-(4-N,N-diethylaminomethylphenyl) imidazole] | 290 nM
10 | CCN(CC)Cc1ccc(-c2nc(-c3ccc(/C=C/C(=O)OC)cc3)[nH]c2-c2ccc(CN(CC)CC)cc2)cc1 [Example 100, 2-[4-trans-(2-methoxycarbonyl-ethenyl)phenyl]-4,5-bis (4-N,N-diethylaminomethylphenyl) imidazole] | 3400 nM
11 | CCOC/C=C/c1ccc(-c2nc(-c3ccc(OC)cc3)c(-c3ccc(OC)cc3)[nH]2)cc1 [Example 102, 2-[4-(3-ethoxy-trans-1-propen-1-yl)phenyl]-4,5-bis (4-dimethoxyphenyl) imidazole] | 350 nM
12 | CCOC/C=C/c1ccc(-c2nc(-c3ccc(OCC)cc3)c(-c3ccc(OCC)cc3)[nH]2)cc1 [Example 103, 2-[4-(3-ethoxy-trans-1-propen-1-yl)phenyl]-4,5-bis (4-diethoxyphenyl) imidazole] | 240 nM
13 | CCOC/C=C/c1ccc(-c2nc(-c3ccc(OC(C)C)cc3)c(-c3ccc(OC(C)C)cc3)[nH]2)cc1 [Example 104, 2-[4-(3-ethoxy-trans-1-propen-1-yl)phenyl]-4,5-bis (4diisopropyloxyphenyl) imidazole] | 250 nM
14 | CCOC/C=C/c1ccc(-c2nc(-c3ccc(OC)cc3)c(-c3ccc(OC)cc3)n2CCCn2ccnc2)cc1 [Example 105, 1-(3-imidazole-1-yl-propyl)-2-[4-(3-ethoxy-trans-1-propen-1-yl)phenyl]-4,5bis (4-dimethoxyphenyl) imidazole] | 650 nM
15 | CCOC/C=C/c1ccc(-c2nc(-c3ccc(OCC)cc3)c(-c3ccc(OCC)cc3)n2CCCn2ccnc2)cc1 [Example 106, 1-(3-imidazole-1-yl-propyl)-2-[4-(3-ethoxy-trans-1-propen-1-yl)phenyl]-4,5bis (4-diethoxyphenyl) imidazole] | 380 nM
16 | CCOC/C=C/c1ccc(-c2nc(-c3ccc(OC(C)C)cc3)c(-c3ccc(OC(C)C)cc3)n2CCCn2ccnc2)cc1 [Example 107, 1-(3-imidazole-1-yl-propyl)-2-[4-(3-ethoxy-trans-1-propen-1-yl)phenyl]-4,5bis (4-diisopropyloxyphenyl) imidazole] | 490 nM

Row | SMILES | EC50
17 | CCOC/C=C/c1ccc(-c2nc(-c3ccc(N(CC)CC)cc3)c[nH]2)cc1 [Example 108, 2-[4-(3-ethoxy-trans-1-propen-1-yl)phenyl]-4-(4-N,N-diethylphenyl) imidazole] | 300 nM
18 | CCOC/C=C/c1ccc(-c2nc(-c3ccc(OC)cc3)c[nH]2)cc1 [Example 109, 2-[4-(3-ethoxy-trans-1-propen-1-yl)phenyl]-4-(4-methoxyphenyl) imidazole] | 1850 nM
19 | CN(C)c1ccc(-c2nc(-c3ccc(/C=C/CO)cc3)n(C)c2-c2ccc(N(C)C)cc2)cc1 [Example 114, 1-methyl-2-[4-(3-hydroxy-trans-1-propen-1-yl)phenyl]-4,5-bis (4-N,N-dimethylaminophenyl) imidazole] | 630 nM
20 | CN(C)c1ccc(-c2nc(-c3ccc(/C=C/COC(=O)C(C)(C)C)cc3)[nH]c2-c2ccc(N(C)C)cc2)cc1 [Example 115, 2-[4-(3-pivalate-trans-1-propen-1-yl)phenyl]-4,5-bis (4-N,N-dimethylaminophenyl) imidazole] | 480 nM
21 | CC(=O)/C=C/c1ccc(-c2nc(-c3ccc(N(C)C)cc3)c(-c3ccc(N(C)C)cc3)[nH]2)cc1 [Example 116, 2-[4-(3-methylcarbonyl-trans-1-propen-1-yl)phenyl]-4,5-bis (4-N,N-dimethylaminophenyl) imidazole] | 230 nM
22 | CCOC/C=C/c1ccc(-c2nc3cc(OC)ccc3[nH]2)cc1 [Example 118] | 1000 nM
23 | CCOC/C=C/c1ccc(-c2nc(-c3ccc(NC(C)C)cc3)c(-c3ccc(NC(C)C)cc3)[nH]2)cc1 [Example 119, 2-[4-(3-ethoxy-trans-1-propen-1-yl)phenyl]-4,5-bis-(4-N-isopropylaminophenyl) imidazole] | 67 nM
24 | CCNc1ccc(-c2[nH]c(-c3ccc(/C=C/COCC)cc3)nc2-c2ccc(NC(C)C)cc2)cc1 [Example 120, 2-[4-(3-ethoxy-trans-1-propen-1-yl)phenyl]-4-(4-N-ethylaminophenyl)-5(4-N-isopropylaminophenyl) imidazole] | 53 nM
25 | CCOC/C=C/c1ccc(-c2nc(-c3ccc(NC(C)C)cc3)c(-c3ccc(F)cc3)[nH]2)cc1 [Example 121, 2-[4-(3-ethoxy-trans-1-propen-1-yl)phenyl]-4-(4-fluorophenyl)-5-(4-N-isopropylaminophenyl) imidazole] | 120 nM
26 | CCCN(CCC)c1ccc(-c2c[nH]c(-c3ccc(/C=C/COCC)cc3)n2)cc1 [Example 122, 2-[4-(3-ethoxy-trans-1-propen-1-yl)phenyl]-4-(4-N,N-dipropylphenyl) imidazole] | 280 nM
27 | CCOC/C=C/c1ccc(-c2nc(-c3ccc(NC(C)C)cc3)c[nH]2)cc1 [Example 123, 2-[4-(3-ethoxy-trans-1-propen-1-yl)phenyl]-4-(4-N-isopropylphenyl) imidazole] | 340 nM
28 | CCOC/C=C/c1ccc(-c2nc(-c3ccc(NCC(C)C)cc3)c[nH]2)cc1 [Example 124, 2-[4-(3-ethoxy-trans-1-propen-1-yl)phenyl]-4-(4-N-isobutylphenyl) imidazole] | 250 nM
29 | CCOC/C=C/c1ccc(-c2nc(-c3ccc(N4CCOCC4)cc3)c[nH]2)cc1 [Example 125, 2-[4-(3-ethoxy-trans-1-propen-1-yl)phenyl]-4-(4-N-morpholinophenyl) imidazole] | 370 nM
30 | CCOC/C=C/c1ccc(-c2nc(-c3ccc(N4CCN(CC)CC4)cc3)c[nH]2)cc1 [Example 126, 2-[4-(3-ethoxy-trans-1-propen-1-yl)phenyl]-4-[4-N-(N'-ethyl)piperizanophenyl) imidazole] | 710 nM
31 | CCOC/C=C/c1ccc(-c2nc(-c3ccc(N4CCOCC4)cc3)c(C)[nH]2)cc1 [Example 127, 2-[4-(3-ethoxy-trans-1-propen-1-yl)phenyl]-4-(4-N-morpholinophenyl)-5methyl-imidazole] | 330 nM

These compounds were tested on CEM/VLB1000 cell line (assay: [3H]VLB accumulation in CEM/VLB1000 cells). Settings: Homo sapiens, midpoint of minimum and maximum increase in accumulation of 3H-vinblastine (275 nM), 3 hours at 37° C.
Type: cell-based
Procedure: ^3 H-vinblastine accumulation was also measured in the CEM/VLB1000 cell line. Corning Easy-Wash 96 well plates were pretreated with PBS and 1% BSA for 60 minutes and then removed. CEM/VLB1000 cells were seeded at 2×10^5, 40 μL volume. Plates were incubated at 37° C. for 30-60 minutes prior to use. The reference reversing agent, verapamil, or the compound of the present invention was added to the well followed by addition of media containing ^3 H-vinblastine (final concentration=275nM). Plates were allowed to incubate for 3 hours at 37° C. Cells were harvested onto pretreated Wallace filtermats A (pretreated with 0.1% polyethyleneimine) using a TomTek harvester-96. After filtering, the filtermats were allowed to dry completely. Meltix B scintillant was then added to the filtermats. The filters were then placed in a 90° C. oven for approximately 3-5 minutes and then removed. Scintillant was allowed to solidify on the filtermats. Filtermats were then placed in sample bags and read on a Wallace BetaPlate scintillation counter. The effects of compounds of the present invention in the cytotoxicity potentiation assays and vinblastine (VLB) accumulation assay are given in the Table below:
^2 Values presented are the midpoint (EC50 ) of the minimum and
maximum increase in accumulation of ^3 Hvinblastine caused by the
specfic compound of the present invention.

Row | SMILES | EC50
32 | COC/C=C/c1ccc(-c2nc(-c3ccc(N(C)C)cc3)c(-c3ccc(N(C)C)cc3)[nH]2)cc1 [Example 74, 2-[4-(3-methoxy-trans-1-propen-1-yl)phenyl]-4,5-bis (4-N,N-dimnethylaminophenyl) imidazole] | 2000 nM
33 | CCOC/C=C/c1ccc(-c2nc(-c3ccc(N(C)C)cc3)c(-c3ccc(N(C)C)cc3)[nH]2)cc1 [Example 75, 2-[4-(3-ethoxy-trans-1-propen-1-yl)phenyl]-4,5-bis (4-N,N-dimethylaminophenyl) imidazole] | 1200 nM
